From PMC8050233, “Biased cytochrome P450-mediated metabolism via small-molecule ligands binding P450 oxidoreductase” (Nature Communications, 2021)
Where two headings read alike, the source gives them in different places.

How the values were obtained:
human POR [1] = target: T1, human POR (Homo sapiens, UniProt A0A9L9PY49); assay: biochemical; parameters: POR proteoliposome reduction of cytochrome c, MTT (absorbance) or resazurin (fluorescence), normalized to DMSO control; details: Liposomes=Liposomes, electron acceptor as given
T1 construct: full-length wild type in pET22b, expressed in E. coli BL21(DE3); bacterial membranes reconstituted in DLPC/DLPG liposomes without further purification, or used as microsomes
T1 sequence (A0A9L9PY49 1-680): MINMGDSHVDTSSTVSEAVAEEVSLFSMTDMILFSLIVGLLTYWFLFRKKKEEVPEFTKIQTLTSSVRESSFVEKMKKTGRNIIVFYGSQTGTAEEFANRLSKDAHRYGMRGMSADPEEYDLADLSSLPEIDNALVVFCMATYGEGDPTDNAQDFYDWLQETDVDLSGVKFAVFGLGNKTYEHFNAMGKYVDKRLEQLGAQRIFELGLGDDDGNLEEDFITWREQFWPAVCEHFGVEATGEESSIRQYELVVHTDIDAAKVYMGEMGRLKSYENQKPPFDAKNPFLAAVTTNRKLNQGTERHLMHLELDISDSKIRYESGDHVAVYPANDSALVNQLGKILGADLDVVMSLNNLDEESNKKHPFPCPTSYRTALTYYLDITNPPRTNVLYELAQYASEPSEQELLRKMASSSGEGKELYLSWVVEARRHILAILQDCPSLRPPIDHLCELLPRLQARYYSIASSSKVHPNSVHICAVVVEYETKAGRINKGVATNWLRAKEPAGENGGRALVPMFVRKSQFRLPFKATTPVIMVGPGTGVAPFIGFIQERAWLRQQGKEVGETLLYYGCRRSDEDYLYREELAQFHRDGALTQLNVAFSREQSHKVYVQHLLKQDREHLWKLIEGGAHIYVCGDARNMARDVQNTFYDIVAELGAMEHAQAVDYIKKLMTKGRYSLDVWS
Description: (§1) Using Cytc, MTT or RS as electron acceptors the change in absorbance (550 nm for Cytc and 610 nm for MTT) or emission (570 nm excitation, 585 nm emission for RS) was monitored as a function of time. Cytc and RS concentrations were both close to KM of the given electron acceptor, while MTT and NADPH were in excess amounts. Concentrations were 40 μM Cytc, 10 μM RS, 500 μM MTT and 100 μM NADPH unless otherwise stated. POR activity was extracted from the slope of the linear region of each trace. Michaelis–Menten kinetics and IC50 curves were performed under identical conditions using relevant substrate and ligand concentrations. All measurements were repeated at least three times and subsequently normalized to DMSO control measurements. […] Fluorescence intensities of resorufin in the presence of rifampicin were corrected according to a linear calibration curve (see Supplementary Fig. 7). Given that point-mutations in human POR can lead to altered specificity towards CYP isoforms[4],[19], we tested whether small-molecule ligands can bias the specificity of human POR to reduce diverse electron acceptors. […] (MTT)[32] (Fig. 2A). Each of the assays relies on spectral changes of the electron acceptor upon reduction by POR and thus directly reports on POR activity towards reducing the specific redox partner (see Supplementary Methods for details). Being comparative these assays exclude artefacts that may originate from potential FMN loss. […] POR plays an omnipotent role as an electron donor to microsomal CYPs in all eukaryotes and serves as a key metabolic hub in plants as well as humans. To test whether the effect of small-molecule ligand binding to POR is an omnipotent phenomenon underlying the regulation of POR in organisms from different kingdoms, we performed binding assays based on intrinsic fluorescence quenching and dose-response experiments on POR2b from the crop plant Sorghum bicolor (SbPOR2b) in proteoliposomes (Fig. 3A, B, Supplementary Fig. 6 and Supplementary Table 3).

SbPOR2b [2] = target: T2, SbPOR2b (Sorghum bicolor, UniProt C5YJG8); assay: cytochrome c reduction, absorbance […] nm, Hill fit; type: biochemical
T2 construct: gene CPR; full-length, expressed in E. coli NiCo21(DE3) from pET52b, purified on 2',5'-ADP Sepharose and Q-sepharose, in DLPC/DLPG proteoliposomes; mutant in lipid nanodiscs

in vitro = details: human, nci-h295r cells
Source text: We tested the efficiency of the three ligands to elicit a physiological response on steroidogenic CYP activities in cells (Fig. 5A, see Supplementary Methods, Supplementary Fig. 14 and Supplementary Table 4 for all data and number of biological replicates). The 3 tested ligands are not known to interact directly with CYP17, CYP19 or CYP21, albeit rifampicin and [compound left out] are known to interact with liver CYPs like CYP2B6[27] and CYP3A4[28]. Using a human adrenocortical cell line (NCI-H295R) we tested the effect of ligands on CYP17A1 and CYP21A2[59],[60] activities at 10 and 100 μM concentrations (Fig. 5A). Using radiolabeled substrates, we were able to quantify the steroid hormone production of CYP17A1 and CYP21A2 and its remodeling by POR ligands (see Supplementary Methods for details). […]. Rifampicin caused no significant effect on CYP17A1 activity, but reduced CYP21A2 activity at 100 μM (73 ± 4% of control; see Fig. 5A and Supplementary Fig. 14). […]. […]. […] (91 ± 12% of control). Specific inhibition of CY Fig. 5 Biased metabolism: small-molecule ligands bias steroidogenic CYP-activities in human cells and microsomes. A A human adrenocortical cell line (NCI-H295R) was used to assess the effect of small-molecule ligands on steroidogenic CYP17A1 and CYP21A2 hydroxylase activity, and CYP17A1 lyase activity, using radiolabeled substrates (see Supplementary Methods and Supplementary Table 4). Cell viability was assessed based on MTT reduction. […]. The cells display increased MTT reduction indicating increased reductase activity. No significant effects on CYP17A1 activities are observed. [compound left out] causes a significance increase in CYP17A1 lyase and less significant towards 17-OHase and 21A2 activities, while MTT reduction decreases slightly. [compound left out] causes inhibition of both CYP17A1 and CYP21A2 activities. B Abiraterone was used as a control inhibitor of CYP17A1 and CYP21A2 in H295R cells. C The effect of ligands on CYP19A1 activity was assessed on microsomes from a human choriocarcinoma cell line (JEG3). […]. A, C Error bars represent mean ± SD of 3–4 biological replicates normalized to DMSO controls with propagated error. See Supplementary Fig. 14 for raw data and Supplementary Table 4 for exact value of n for each experimental condition. Note, overlapping data points appear shaded. Level of significance is determined by one-way ANOVA and Tukey’s HSD test correcting for multiple comparisons (*p < 0.05; **p < 0.01; ***p < 0.005; see Supplementary Methods for details). Source data are provided as a Source Data file.

SbPOR2b [3] = target: T2, SbPOR2b; assay: resazurin reduction, fluorescence, Hill fit; type: biochemical
Source text: resazurin reduction, fluorescence, Hill fit on SbPOR2b | activity decrease in Cytc reduction and increase in RS reduction

SbPOR2b [4] = target: T2, SbPOR2b; assay: biochemical; parameters: POR proteoliposome reduction of cytochrome c, MTT (absorbance) or resazurin (fluorescence), normalized to DMSO control; details: Liposomes=Liposomes, electron acceptor as given
Description: as §1

human POR [5] = target: T1, human POR; assay: cytochrome c reduction, absorbance […] nm; type: biochemical; details: read-out: % of control at 100 μM
SbPOR2b [6] = target: T2, SbPOR2b; assay: cytochrome c reduction, absorbance […] nm, Hill fit; type: biochemical; remark: listed apart in the source
SbPOR2b [7] = target: T2, SbPOR2b; assay: resazurin reduction, fluorescence, Hill fit; type: biochemical; remark: listed apart in the source
Source text: resazurin reduction, fluorescence, Hill fit on SbPOR2b | while marginally reducing the capacity in the RS assay

[8] = read-out: % of control remaining, Cytochrome C=Cytochrome C
[9] = read-out: % of control remaining, Cytochrome C=MTT
[10] = read-out: % of control remaining, Cytochrome C=Resazurin
[11] = Cytochrome C=Cytochrome C, read-out: % of control remaining
[12] = Cytochrome C=Resazurin, read-out: % of control remaining
[13] = Cytochrome C=MTT, read-out: % of control remaining
[14] = Assay=MTT cell viability, DMSO (v/v %)=1, read-out: % viability

T2 sequence (C5YJG8 whole entry): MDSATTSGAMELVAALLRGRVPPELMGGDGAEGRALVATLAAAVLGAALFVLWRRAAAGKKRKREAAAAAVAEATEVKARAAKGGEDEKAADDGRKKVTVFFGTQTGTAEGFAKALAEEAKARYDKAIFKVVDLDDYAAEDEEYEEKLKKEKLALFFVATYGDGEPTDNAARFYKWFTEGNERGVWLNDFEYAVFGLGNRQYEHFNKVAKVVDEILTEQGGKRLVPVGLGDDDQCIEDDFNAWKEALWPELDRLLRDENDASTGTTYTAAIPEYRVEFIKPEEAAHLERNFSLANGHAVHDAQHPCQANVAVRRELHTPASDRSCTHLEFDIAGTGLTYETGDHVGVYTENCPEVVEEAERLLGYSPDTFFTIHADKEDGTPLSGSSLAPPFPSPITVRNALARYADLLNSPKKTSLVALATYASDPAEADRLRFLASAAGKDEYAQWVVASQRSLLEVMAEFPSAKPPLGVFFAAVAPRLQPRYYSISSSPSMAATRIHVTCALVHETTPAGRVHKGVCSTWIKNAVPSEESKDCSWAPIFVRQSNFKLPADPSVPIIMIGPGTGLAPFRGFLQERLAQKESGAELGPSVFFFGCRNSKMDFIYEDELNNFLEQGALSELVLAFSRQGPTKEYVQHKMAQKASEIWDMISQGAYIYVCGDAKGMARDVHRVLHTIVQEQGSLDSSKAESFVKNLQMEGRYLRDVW

| Structure (SMILES) | remaining activity at 10 µM (human POR [1]; [8]) [%] | remaining activity at 100 µM (human POR [1]; [8]) [%] | remaining activity at 10 µM (human POR [1]; [9]) [%] | remaining activity at 10 µM (human POR [1]; [10]) [%] | remaining activity at 100 µM (human POR [1]; [10]) [%] | further results |
| --- | --- | --- | --- | --- | --- | --- |
| CCCCc1oc2ccccc2c1C(=O)c1cc(I)c(OCCN(CC)CC)c(I)c1 [Amiodarone] | 95.6 | 106 | 85.1 | 102 | 102 | – |
| CN/C(=N\CCSCc1nc[nH]c1C)NC#N [Cimetidine] | 110 | 117 | 96.9 | 107 | 112 | – |
| CO[C@@]12[C@H](COC(N)=O)C3=C(C(=O)C(C)=C(N)C3=O)N1C[C@@H]1N[C@@H]12 [Mitomycin C] | 101 | – | 110 | 53.7 | – | – |
| CC(C)c1nc(CN(C)C(=O)N[C@H](C(=O)N[C@@H](Cc2ccccc2)C[C@H](O)[C@H](Cc2ccccc2)NC(=O)OCc2cncs2)C(C)C)cs1 [Ritonavir] | 108 | 118 | 88.4 | 96.9 | 95.9 | – |
| CC(=O)CC(c1ccccc1)c1c(O)c2ccccc2oc1=O (centres unmarked) [Warfarin] | 102 | – | 118 | 96.2 | – | – |
| O=P1(N(CCCl)CCCl)NCCCO1 (centres unmarked) [cyclophosphamide] | – | – | – | – | – | IC50 (SbPOR2b [2]): 228 ± 208 µM; viability at 10 µM (in vitro): 87.9%; viability at 100 µM (in vitro): 81.4%; EC50 (SbPOR2b [3]): 159 ± 136 µM |
| N#C[C@@H](O[C@@H]1O[C@H](CO)[C@@H](O)[C@H](O)[C@H]1O)c1ccc(O)cc1 [dhurrin] | – | – | – | – | – | remaining activity at 10 µM (SbPOR2b [4]; [11]): 128%; remaining activity at 100 µM (SbPOR2b [4]; [11]): 156%; remaining activity at 100 µM (SbPOR2b [4]; [12]): 236%; remaining activity at 10 µM (human POR [1]; [13]): 87.7%; remaining activity at 100 µM (human POR [1]; [13]): 95.9%; remaining activity at 10 µM (human POR [1]; [12]): 105%; remaining activity at 100 µM (human POR [1]; [12]): 81.7%; remaining activity at 100 µM (human POR [5]): 48 ± 9%; viability at 10 µM (in vitro): 93.6%; viability at 100 µM (in vitro): 88.1%; EC50 (SbPOR2b [6]): 21 ± 12 µM |
| CO[C@H]1/C=C/O[C@@]2(C)Oc3c(C)c(O)c4c(O)c(c(/C=N/N5CCN(C)CC5)c(O)c4c3C2=O)NC(=O)/C(C)=C\C=C\[C@H](C)[C@H](O)[C@@H](C)[C@@H](O)[C@@H](C)[C@H](OC(C)=O)[C@@H]1C [rifampicin] | 113 | – | 95.7 | 132 | 312 | remaining activity at 10 µM (SbPOR2b [4]; [8]): 140%; remaining activity at 100 µM (SbPOR2b [4]; [8]): 179%; remaining activity at 10 µM (SbPOR2b [4]; [10]): 102%; remaining activity at 100 µM (SbPOR2b [4]; [10]): 85%; remaining activity at 100 µM (human POR [1]; [9]): 122%; remaining activity at 100 µM (human POR [5]): 14 ± 5%; viability at 10 µM (in vitro; [14]): 94%; viability at 100 µM (in vitro; [14]): 116%; EC50 (SbPOR2b [6]): 9 ± 8 µM; IC50 (SbPOR2b [7]): 18 ± 9 µM |
